IC50 data for 26 molecules are collected here from patent US20240376126A1, “PRMT5 INHIBITOR AND THE USE THEREOF” (CYTOSINLAB THERAPEUTICS CO., LTD., priority 2022, published 2024).

One test deals with HCT116 MTAP WT cells. Briefly: Proliferation inhibition of HCT116 cells in vitro (CellTiter Glo, 6 days). It is filed as cell-based. The conditions noted are these: Homo sapiens, HCT-116, 144 h, read-out: Cell proliferation inhibition rate HCT116 MTAP WT IC50 (nm). In general terms: In ATP-based viability assays light output follows the ATP content of the culture.
The test system of test [1] is HCT116-MTAP-KO (MTAP null) cells. Briefly: Proliferation inhibition of HCT116 MTAP-KO cells in vitro (CellTiter Glo, 6 days). It counts as cell-based. The settings on record: HCT116-MTAP null, 144 h, read-out: Cell proliferation inhibition rate HCT116-MTAP null IC50 (nm).

With `COCC(C1CC1)N(Cc1nc2cc(C(F)(F)F)ccc2s1)C(=O)c1ccc2nc(N)c(C)cc2c1` (stereo not shown) [Example 150], the IC50 with HCT116 MTAP WT cells was in the range of 1000 to 10000 nM; in test [1], 100 to 1000 nM.
Take `COCC(C1CC1)N(Cc1nc2cc(Br)ccc2s1)C(=O)c1ccc2nc(N)c(C)cc2c1` (stereo not shown) [Example 151]: the IC50 lay within 1000 to 10000 nM with HCT116 MTAP WT cells and 100 to 1000 nM in test [1].
Take `CC(c1ncccn1)N(Cc1nc2cc(C(F)(F)F)ccc2s1)C(=O)c1ccc2nc(N)c3c(c2c1)CCC3` (stereo not shown) [Example 153]: the values for the IC50 (in the test on HCT116 MTAP WT cells; in test [1]) were 1000 to 10000 nM and 100 to 1000 nM, respectively.
For the molecule `COCC(C1CC1)N(Cc1nc2cc(C(F)(F)F)ccc2s1)C(=O)c1ccc2nc(N)c3c(c2c1)CCC3` (stereo not shown) [Example 154], the values for the IC50 (in the test with HCT116 MTAP WT cells; in test [1]) were 1000 to 10000 nM and 100 to 1000 nM, respectively.
For `CC(c1ncccn1)N(Cc1nc2ccccn2n1)C(=O)c1ccc2nc(N)c3c(c2c1)CCC3` (stereo not shown) [Example 155], in that order: 1000 to 10000 nM and 100 to 1000 nM.
For `CC(c1ncccn1)N(Cc1cc2n(n1)CCOC2)C(=O)c1ccc2nc(N)c3c(c2c1)CCC3` (stereo not shown) [Example 156], in that order: 1000 to 10000 nM and 100 to 1000 nM.
With `CC(c1ncccn1)N(Cc1cn2c(n1)COCC2)C(=O)c1ccc2nc(N)c3c(c2c1)CCC3` (stereo not shown) [Example 157], the figures for the IC50 (in the test with HCT116 MTAP WT cells; in test [1]) were 1000 to 10000 nM and 100 to 1000 nM, respectively.
Regarding `Cc1cn2c(n1)c(N)nc1cc(F)c(C(=O)N(Cc3cn4ccccc4n3)CC(C)C)cc12` [Example 158], the IC50 fell in the range of 1000 to 10000 nM in the test with HCT116 MTAP WT cells and 100 to 1000 nM in test [1].
As to `CCN(Cc1cc2ccccn2n1)C(=O)c1ccc2nc(N)c3cnc(C)n3c2c1` [Example 159], the IC50 lay in the range of 1000 to 10000 nM in the test on HCT116 MTAP WT cells and 100 to 1000 nM in test [1].
The like results for `Cc1ncc2c(N)nc3ccc(C(=O)N(Cc4nc5cnccc5s4)CC(C)C)cc3n12` [Example 160] were, in that order, 1000 to 10000 nM and 100 to 1000 nM.
With `Cc1nc(C)n2c1c(N)nc1cc(F)c(C(=O)N(Cc3cn4ccccc4n3)CC(C)C)cc12` [Example 162], the IC50 in the test on HCT116 MTAP WT cells lay in the range of 1000 to 10000 nM; in test [1], 100 to 1000 nM.
For `CCN(C(=O)c1cc2c(cc1F)nc(N)c1cnc(C)n12)C(C)c1cn2ccccc2n1` (stereo not shown) [Example 163], in that order: 1000 to 10000 nM and 100 to 1000 nM.
Take `COCCN(Cc1cn2ccccc2n1)C(=O)c1cc2c(cc1C)nc(N)c1cnc(C)n12` [Example 166]: the IC50 in the test with HCT116 MTAP WT cells is 100 to 1000 nM; in test [1] it was < 100 nM.
As to `Cc1nc(C)n2c1c(N)nc1ccc(C(=O)N(C)C3COc4cc(-c5cnn(C(F)(F)F)c5)ccc43)cc12` (stereo not shown) [Example 167], the IC50 lay within 1000 to 10000 nM with HCT116 MTAP WT cells and 100 to 1000 nM in test [1].
Turning to `Cc1cn2c(n1)c(N)nc1ccc(C(=O)N3C(C)COC[C@@H]3c3cn4ccccc4n3)cc12` (stereo partly shown) [Example 168], the results for the IC50 (in the test on HCT116 MTAP WT cells; in test [1]) were 1000 to 10000 nM and 100 to 1000 nM, respectively.
The like results for `Cc1ncc2c(N)nc3cc(F)c(C(=O)N(Cc4cn5ccccc5n4)C45CC(C4)C5)cc3n12` [Example 169] were, in that order, 100 to 1000 nM and < 100 nM.
The like results for `Cc1cn2c(n1)c(N)nc1cc(F)c(C(=O)N3C(C)COC[C@@H]3c3cn4cc(C(F)(F)F)ccc4n3)cc12` (stereo partly shown) [Example 170] were, in that order, 100 to 1000 nM and < 100 nM.
For `COCCN(C(=O)c1cc2c(cc1F)nc(N)c1cnc(C)n12)C(C)c1cn2ccccc2n1` (stereo not shown) [Example 171], in that order: 1000 to 10000 nM and 100 to 1000 nM.
Turning to `Cc1ncc2c(N)nc3cc(F)c(C(=O)N4C(C)COC[C@@H]4c4cn5cc(C(F)(F)F)ccc5n4)cc3n12` (stereo partly shown) [Example 172], the results for the IC50 (in the test with HCT116 MTAP WT cells; in test [1]) were 100 to 1000 nM and < 100 nM, respectively.
On to `[2H]C([2H])([2H])N(Cc1cn2cc(C(F)(F)F)ccc2n1)C(=O)c1cc2c(cc1F)nc(N)c1cnc(C)n12` [Example 173], for which the IC50 is 1000 to 10000 nM in the test with HCT116 MTAP WT cells and 100 to 1000 nM in test [1].
For `Cc1cn2c(n1)c(N)nc1cc(F)c(C(=O)N3C(C)COC[C@@H]3c3cn4ccccc4n3)cc12` (stereo partly shown) [Example 174], in that order: < 100 nM and 100 to 1000 nM.
`Cc1ncc2c(N)nc3cc(F)c(C(=O)N4C(C)COC[C@@H]4c4cn5ccccc5n4)cc3n12` (stereo partly shown) [Example 176]: the IC50 in the test on HCT116 MTAP WT cells was in the range of 1000 to 10000 nM; in test [1], 100 to 1000 nM.
Turning to `COC1CC(N(Cc2cn3ccccc3n2)C(=O)c2cc3c(cc2F)nc(N)c2cnc(C)n23)C1` (stereo not shown) [Example 177], the IC50 in the test on HCT116 MTAP WT cells is 1000 to 10000 nM; in test [1], 100 to 1000 nM.
The like results for `CCN(Cc1cn2cc(C(F)(F)F)ccc2n1)C(=O)c1cc2c(cc1F)nc(N)c1cnc(C)n12` [Example 178] were, in that order, 1000 to 10000 nM and 100 to 1000 nM.
The like results for `Cc1ncc2c(N)nc3cc(F)c(C(=O)N(Cc4cn5ccccc5n4)C4CCC4)cc3n12` [Example 179] were, in that order, 1000 to 10000 nM and < 100 nM.
For `Cc1ncc2c(N)nc3cc(F)c(C(=O)N(Cc4cn5ccccc5n4)CC(F)(F)F)cc3n12` [Example 180], in that order: 1000 to 10000 nM and 100 to 1000 nM.
